Assay results as given in patent publication US8609636B2, “Oxime derivatives as sphingosine 1-phosphate (S1P) receptor modulators” (Allergan, Inc., priority 2010, dated 2013).

biological target: T1, human S1P1 receptor (Homo sapiens, UniProt P21453); assay: GTP γ35S binding assay for S1P1 activity; assay type: biochemical; conditions: activity potency, S1P1 receptor from GTP γ35S binding; membranes, test range 0.08 to 5,000 nM
T1 construct: expressed in transfected cells; membranes used
Method: Compounds were synthesized and tested for S1P1 activity using the GTP γ^35S binding assay. These compounds may be assessed for their ability to activate or block activation of the human S1P1 receptor in cells stably expressing the S1P1 receptor.
GTP γ^35S binding was measured in the medium containing (mM) HEPES 25, pH 7.4, MgCl2 10, NaCl 100, dithitothreitol 0.5, digitonin 0.003%, 0.2 nM GTP γ^35S, and 5 μg membrane protein in a volume of 150 μl. Test compounds were included in the concentration range from 0.08 to 5,000 nM unless indicated otherwise. Membranes were incubated with 100 μM 5′-adenylylimmidodiphosphate for 30 min, and subsequently with 10 μM GDP for 10 min on ice. Drug solutions and membrane were mixed, and then reactions were initiated by adding GTP γ^35S and continued for 30 min at 25° C. Reaction mixtures were filtered over Whatman GF/B filters under vacuum, and washed three times with 3 mL of ice-cold buffer (HEPES 25, pH7.4, MgCl2 10 and NaCl 100). Filters were dried and mixed with scintillant, and counted for ^35S activity using a β-counter. Agonist-induced GTP γ^35S binding was obtained by subtracting that in the absence of agonist. Binding data were analyzed using a non-linear regression method. In case of antagonist assay, the reaction mixture contained 10 nM S1P in the presence of test antagonist at concentrations ranging from 0.08 to 5000 nM.

T1 sequence (P21453 whole entry): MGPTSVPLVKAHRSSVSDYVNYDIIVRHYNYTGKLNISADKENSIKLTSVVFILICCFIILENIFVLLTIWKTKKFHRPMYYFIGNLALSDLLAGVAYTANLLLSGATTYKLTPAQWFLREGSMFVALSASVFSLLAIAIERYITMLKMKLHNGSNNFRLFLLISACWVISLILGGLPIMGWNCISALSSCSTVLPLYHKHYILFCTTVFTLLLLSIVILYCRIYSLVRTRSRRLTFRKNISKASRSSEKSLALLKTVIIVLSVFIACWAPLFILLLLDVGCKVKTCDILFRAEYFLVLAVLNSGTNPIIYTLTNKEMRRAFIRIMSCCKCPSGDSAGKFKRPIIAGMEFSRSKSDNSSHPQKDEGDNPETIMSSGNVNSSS

EC50 | Structure (SMILES)
43.2 nM | C/C(=N\OCC(Cc1ccc(C)c(C)c1)c1cccc(C)c1)c1ccc(CNCCC(=O)O)cc1 (stereo not shown) [Compound 1, 3-[(4-{(1E)-N-[3-(3,4-dimethylphenyl)-2-(3-methylphenyl)propoxy]ethanimidoyl}benzyl)amino]propanoic acid]
23.4 nM | C/C(=N\OCC(Cc1ccc(C)c(C)c1)c1cccc(C)c1)c1ccc(CNCCCP(=O)(O)O)cc1 (stereo not shown) [Compound 2, {3-[(4-{(1E)-N-[3-(3,4-dimethylphenyl)-2-(3-methylphenyl)propoxy]ethanimidoyl}benzyl)amino]propyl}phosphonic acid]
15.6 nM | C/C(=N\OCC(Cc1ccc(C)c(C)c1)c1cccc(Cl)c1)c1ccc(CNCCC(=O)O)cc1 (stereo not shown) [Compound 3, 3-[(4-{(1E)-N-[2-(3-chlorophenyl)-3-(3,4-dimethylphenyl)propoxy]ethanimidoyl}benzyl)amino]propanoic acid]
3.51 nM | C/C(=N\OCC(Cc1ccc(C)c(C)c1)c1cccc(Cl)c1)c1ccc(CNCCCP(=O)(O)O)cc1 (stereo not shown) [Compound 4, {3-[(4-{(1E)-N-[2-(3-chlorophenyl)-3-(3,4-dimethylphenyl)propoxy]ethanimidoyl}benzyl)amino]propyl}phosphonic acid]
2.2 nM | C/C(=N\OCc1ccc(CNCCCP(=O)(O)O)cc1)C(Cc1ccc(C)c(C)c1)c1cccc(Cl)c1 (stereo not shown) [Compound 5, [3-({4-[({[(1E)-2-(3-chlorophenyl)-3-(3,4-dimethylphenyl)-1-methylpropylidene]amino}oxy)methyl]benzyl}amino)propyl]phosphonic acid]
0.88 nM | C/C(=N\OCc1ccc(CNCCCP(=O)(O)O)cc1)C(Cc1ccc(C)c(C)c1)c1cc(F)cc(F)c1 (stereo not shown) [Compound 6, [3-({4-[({[(1E)-2-(3,5-difluorophenyl)-3-(3,4-dimethylphenyl)-1-methylpropylidene]amino}oxy)methyl]benzyl}amino)propyl]phosphonic acid]
6.8 nM | C/C(=N\OCc1ccc(CNCCC(=O)O)cc1)C(Cc1ccc(C)c(C)c1)c1cc(F)cc(F)c1 (stereo not shown) [Compound 7, 3-({4-[({[(1E)-2-(3,5-difluorophenyl)-3-(3,4-dimethylphenyl)-1-methylpropylidene]amino}oxy)methyl]benzyl}amino)propanoic acid]
8.34 nM | C/C(=N\OCc1ccc(CNCCCP(=O)(O)O)cc1)C(Sc1ccc(C)c(C)c1)c1cccc(Cl)c1 (stereo not shown) [Compound 10, {3-[(4-{[({(1E)-2-(3-chlorophenyl)-2-[(3,4-dimethylphenyl)thio]-1-methylethylidene}amino)oxy]methyl}benzyl)amino]propyl}phosphonic acid]
216 nM | C/C(=N\OCC(Oc1ccc(C)c(C)c1)c1cccc(Cl)c1)c1ccc(CNCCC(=O)O)cc1 (stereo not shown) [Compound 14, 3-[(4-{(1E)-N-[2-(3-chlorophenyl)-2-(3,4-dimethylphenoxy)ethoxy]ethanimidoyl}benzyl)amino]propanoic acid]
11.4 nM | C/C(=N\OCC(Oc1ccc(C)c(C)c1)c1cccc(Cl)c1)c1ccc(CNCCCP(=O)(O)O)cc1 (stereo not shown) [Compound 15, {3-[(4-{(1E)-N-[2-(3-chlorophenyl)-2-(3,4-dimethylphenoxy)ethoxy]ethanimidoyl}benzyl)amino]propyl}phosphonic acid]
